This is an account of results in patent US9428732B2, “Compositions and methods for differentiating pluripotent stem cells into primitive blood cells and uses thereof” (Primorigen Biosciences, Inc., priority 2011, dated 2016).

The subject of experiment [1] is pluripotent lines (ES, iPS). Put plainly: Additional molecules added to Differentiation Medium 1, FACS and flow cytometry. Format: cell-based, human. Conditions: for total number of cells: added to Differentiation Medium 1 (contains DEAB): LG101506 1 uM, sodium selenite 100 nM, valproic acid 1 mM. As for the experimental part: (§1) Cells from the differentiation cultures were collected at time points indicated and washed in phosphate-buffered saline (PBS) supplemented with 2% FBS. Adherent cells were individualized using TrypLE (Life Technologies, Carlsbad Calif.), passed through a 27.5-gauge needle and filtered through a 40-70 μm cell strainer (BD Falcon, San Diego, Calif., www.bdbiosciences.com). Cells were treated with 7-aminoactinomycin D (7AAD) before analysis, and positive cells were gated out of results. Cells were stained with fluorescence-conjugated antibodies for the hematopoietic stem and progenitor cell markers CD45, CD43, CD34, CD38, CD90; CD45RA. Cells were analyzed on a FACS Canto (BD, Franklin Lakes, N.J., www.bd.com).
We have completed a number of studies to establish other molecules that may further improve the yields and phenotypes of hematopoietic cells derived using Differentiation Medium 1. Tested compounds were Cripto, LY2228820, valproic acid (VPA), sodium selenite, and butein. In all instances, each molecule below was supplemented into Differentiation Medium 1 to study their effect in concert with DEAB. All control experiments for these molecules were cells differentiated using Differentiation Medium 1 (which already contains DEAB). The data we report below for these molecules illustrates how they may improve the yield of hematopoietic progenitors and phenotypic stem cells measured by FACS, flow cytometry, and CFU assays. […] The in vivo engraftment studies to confirm this for these molecules are underway.
(§2) It has been shown that DS DNA breaks reduce transplant efficiency of repopulating HSCs. In vitro derived blood from pluripotent stem cell has high levels of DNA damage. Inhibition of DNA damage and the DNA damage response, from reactive oxygen species (ROS) or other sources of damage (radiation, chemical etc) in pluripotent stem cell differentiation systems will decrease DNA damage and increase hematopoietic cell number, repopulating ability and increase the differentiation potential of the cells (i.e. expansion of downstream lineages). See Yahata et al. Blood, 2011, 118(11):2941-50). […] Adding sodium selenite (100 nM) and butein (10 uM) independently to Differentiation Medium 1 increased enzyme activity for protection against reactive oxygen species (ROS). […] See FIGS. 11A and 11B for sodium selenite and FIGS. 12A and 12B for butein. These studies are being expanded into dose response experiments from which we expect to identify optimal concentrations.
From the pluripotent stem cells differentiated with Differentiation Medium 1 supplemented with 1 mM of valproic acid, we see that all CD34+CD38− cells were 100% CD90+. […] Engraftment studies as described are also being conducted.
On the technique in general: Flow cytometry measures light scatter and fluorescence of single cells or particles in a stream.

Experiment [2] concerns pluripotent stem cells (H1 ES cells and CB1 iPS cells). Nature of the experiment: CFU assay of cells differentiated in Differentiation Medium 1 plus additional molecule. Conditions: for size of CFU colonies: in the present system. Type of experiment: cell-based, human. As for the experimental part: FIG. 14 depicts myeloid CFU cell count data for cells differentiated from pluripotent stem cells (H1 ES cells and CB1 iPS cells) in the presence of DEAB and each of Cripto (500 ng/ml), LY2228820 (shown as “LY222820”, 100 nM), Activin A, valproic acid (VPA, 1 mM), sodium selenite (100 nM), and butein (10 μM).
The differentiation cultures were trypsinized at the indicated time points and single-cell suspensions were generated following trypsinization. For the Colony Forming Unit (CFU) assays using methyl cellulose cultures, 25% of the cells were plated in 2 ml of MethoCult H4435 (STEMCELL Technologies, Vancouver, BC) in six-well plates. Alternatively, sorted CD45+, CD43+, CD34+, 7AAD-cells were sorted and plated at 500 cells per 2 ml Methocult media. Cells were incubated for 14 days in a humidified incubator at 37° C. with 5% CO2 and evaluated for colonies by bright-field microscopy (Zeiss (Oberkochen, Germany, www.zeiss.com) Axiovert 200 with a Zeiss Axiocam), Cells were resuspended in PBS supplemented with 2% FBS. For the lymphoid myeloid differentiation assays, either CD45+, CD43+, CD34+, 7AAD-hematopoietic progenitors, or CD45+, CD43+, CD34+, CD38−, CD90+, CD45RA− phenotypic HSCs were plated at 20-40 cells per well onto OP9 and OP9delta feeder lines for B-cell and T-cell differentiation, respectively, as previously described (Nozad Charoudeh H, Tang Y, Cheng M, Cilio C M, Jacobsen S E, Sitnicka E., Identification of an NK/T cell-restricted progenitor in adult bone marrow contributing to bone marrow- and thymic-dependent NK cell, Blood, 2010 Jul. 15; 116(2):183-92. NK cell differentiation as well as myeloid cell differentiation was also detected in this differentiation system. FACS analysis was performed 4-6 weeks after plating for markers of lymphoid cell differentiation with the markers indicated. Similar cell sortings were performed for single cell Terasaki plate assays of myeloid differentiation and expansion using StemSpan media (STEMCELL Technologies, Vancouver, BC) supplemented with TPO, SCF, FLT3, IL3, GM-CSF. Colony size was estimated by microscopy.
We have completed a number of studies to establish other molecules that may further improve the yields and phenotypes of hematopoietic cells derived using Differentiation Medium 1. Tested compounds were Cripto, LY2228820, valproic acid (VPA), sodium selenite, and butein. In all instances, each molecule below was supplemented into Differentiation Medium 1 to study their effect in concert with DEAB. […] The data we report below for these molecules illustrates how they may improve the yield of hematopoietic progenitors and phenotypic stem cells measured by FACS, flow cytometry, and CFU assays. […]

Experiment [3] has as its system NOD.Cg-Prkdc^scidI12rg^tm1Wjl/SzJ mice. Put plainly: Pluripotent stem cell derived hematopoietic cell transplantation, engraftment. Format: in vivo. The following applies: Differentiation Medium 1 (containing DEAB) supplemented with the molecule; studies underway, predicted. As for the experimental part:
Single-cell suspensions of the pluripotent stem cell differentiation cultures described herein were injected into sublethally irradiated (325 rad) NOD.Cg-Prkdc^scidI12rg^tm1Wjl/SzJ mice (JAX, Bar Harbor, Me., www.jax.org) via tail vein injections, intrafemoral injection, or cardiac injection. Peripheral blood was harvested at times indicated via tail vein or retro-orbital eye bleed or cardiac puncture on anesthetized mice. Bone marrow and spleen cells were harvested at the terminal stage of the transplant experiment. Bone marrow cells were isolated via pestle mortar crushing of bone followed by rinsing and 70 micron filtering. Cells were analyzed by FACS, CFU assay, or transplanted serially into secondary and tertiary mice. FACS analysis for the human pan hematopoietic marker CD45, progenitor marker CD34, myeloid markers CD11b, CD15, CD33 and lymphoid markers CD19, CD56 and CD132, and erythroid markers CD235. When erythrocytes were not being analyzed, the red cells were lysed using ammonium chloride solution (0.8% NH4Cl with 0.1 mM EDTA) (STEMCELL Technologies, Vancouver, BC), spun, and stained with antibodies against the above-mentioned markers. All animal experiments were conducted in accordance with Institutional Animal ethical use protocols.
We have confirmed short-term engraftment and reconstitution ability of hPSC-derived HSCs produced as described in Example 1, by injecting them into sublethally irradiated (325 rad) NOD.Cg-Prkdc^sicdI12rg^tm1Wjl/SzJ mice (JAX, Bar Harbor, Me., www.jax.org) via tail vein injections, intrafemoral injection, or cardiac injection. We transplanted NOD.Cg-Prkdc^scidI12rg^tm1Wjl/SzJ mice with 3×10^6 unsorted cells or 5000 FACS sorted phenotypic HSCs (CD45+, CD43+, CD34+, CD38−, CD90+, CD45RA−) from differentiations using Differentiation Medium 1 medium not including with DEAB (Control) and Differentiation Medium 1 medium including DEAB (DEAB HSCs). […] Typical published values range from 0.1%-1.0%, including those obtained from our control where DEAB was not used to generate the HSCs (0.34%±0.1%).

The next experiment relates to human ES cells. Put plainly: Norepinephrine added to Differentiation Medium 1, flow cytometry. Type of experiment: cell-based. As for the experimental part: as §1
We conducted experiments to reveal if human embryo AGM region-harvested cells generate neurospheres in culture to confirm the presence of neural crest cells in the AGM region. We further completed some experiments to identify a component secreted from the neural crest cells that may be involved in definitive hematopoiesis. We harvested human embryo AGM region tissue and, using fluorescent labeled antibodies specific for neural crest cells, were able to identify the presence of neural crest cells in the AGM hematopoietic niche. […] Hypothesizing norepinephrine as a potential effector secreted from the neural crest cells, we tested it for its ability to further increase progenitor and phenotypic stem cell yields when added to Differentiation Medium 1 at a concentration of 10 uM or 300 uM. Human ES and iPS cells were differentiated to progenitors and phenotypic stem cells with Differentiation Medium 1 as described. The only difference is that 10 uM or 300 uM of norepinephrine was added to Differentiation Medium 1. Cells were then harvested as described and subjected to flow cytometry and FACS analysis using fluorescently labeled antibodies for CD45, CD43, CD34, CD38, CD90, CD45RA as described. […] Given the verified presence of neural crest cells in the AGM niche, we are confident that these cells play a role in establishing definitive hematopoiesis in the developing embryo. As such, long term engraftment and reconstitution ability of hematopoietic progenitors and phenotypic stem cells produced from iPS and ES cells differentiated with Differentiation Medium 1 plus norepinephrine as described above are currently underway. The engraftment and reconstitution studies will be conducted as described by the protocol outlined above in the Materials and Methods.

Experiment [4] relates to pluripotent stem cell differentiation cultures. Nature of the experiment: Enzyme activity for protection against reactive oxygen species. Type of experiment: cell-based, human. Conditions: added independently to Differentiation Medium 1: sodium selenite 100 nM, butein 10 uM.
Excerpt: as §2

Another experiment relates to iPS cells. Nature of the experiment: LY2228820 added to Differentiation Medium 1, flow cytometry, iPS cells. The following applies: 100 nM LY2228820; FIG. 8B. Format: cell-based, human. As for the experimental part:
as §1
(§3) We conducted experiments to determine whether the p38 inhibitor LY2228820 could further increase hematopoietic progenitor and phenotypic stem cell outputs by acting in concert with DEAB when added to Differentiation Medium 1. Human ES and iPS cells were differentiated to progenitors and phenotypic stem cells as described, except 100 nM of LY2228820 was added to Differentiation Medium 1. Cells were then harvested as described and subjected to flow cytometry and FACS analysis using fluorescently labeled antibodies for CD45, CD43, CD34, CD38, CD90, CD45RA as described. […]

The subject of another experiment is H1 ES cells. Nature of the experiment: LY2228820 added to Differentiation Medium 1, flow cytometry, ES cells. Type of experiment: cell-based, human. Conditions: 100 nM LY2228820; FIG. 8A. As for the experimental part:
as §1, §3

On to `C/C(=C/C=C/C(C)=C/C(=O)O)c1cc(C(C)(C)C)cc(C(C)(C)C)c1OCC(F)F` [LG101506], for which the “total output of CD90+ cells” value in experiment [1] (LG101506 1 uM in Differentiation Medium 1, ES, iPS) was “increases”. The “total number of cells” value in experiment [1] (butein 10 uM) is given as “increased”. In addition, the “CFU cellularity and output” value in experiment [2] is given as “enhances”. Also, the “suitability of generated phenotypic HSC cells for in vivo engraftment” value (“suitability” below) in experiment [3] was “suitable for successful in vivo engraftment”.
On to `NC[C@H](O)c1ccc(O)c(O)c1` [norepinephrine], for which, in experiment [2] (hES-derived hematopoietic cells, norepinephrine, data not shown), the colony forming ability entry is reported as “has an effect”. Also, in the experiment with human ES cells (hES-derived hematopoietic cells, norepinephrine in Differentiation Medium 1), the “increase in HSC number” value is recorded as 150%. Further, in the experiment with human ES cells (norepinephrine 10 uM or 300 uM in Differentiation Medium 1, FIG. 9C), the “fold improvement of numbers of phenotypic hematopoietic stem cells (CD45+, CD34+, CD43+, CD38−, CD90+, CD45RA−)” value was “statistically significant increases”. Besides, the “total viable blood cells (CD45+)” value in the experiment with human ES cells (norepinephrine 10 uM or 300 uM, FIG. 9A) is on record as “insignificant improvements”. In the experiment on human ES cells (norepinephrine 10 uM or 300 uM, FIG. 9B), the “intermediate cells (CD45+, CD43+, CD34+, CD38−)” value was “insignificant improvements”. Also, the “suitability” value in experiment [3] is “suitable for successful in vivo engraftment”.
As to `O=C(/C=C/c1ccc(O)c(O)c1)c1ccc(O)cc1O` [butein], the “CD34+, CD38− cells” value in experiment [1] (added independently to Differentiation Medium 1: sodium selenite 100 nM, butein 10 uM) is reported as “increased”. Also, the “total number of cells” value in experiment [1] (butein 10 uM) was “increased”. In experiment [4], the “enzyme activity for protection against reactive oxygen species (ROS)” value is given as “increased”. Moreover, the “suitability” value in experiment [3] was “suitable for successful in vivo engraftment”.
`CC(C)(C)Cn1c(N)nc2ccc(-c3[nH]c(C(C)(C)C)nc3-c3ccc(F)cc3)nc21` [LY2228820]: the “numbers of all cells with the progenitor and phenotypic stem cell phenotypes” value with iPS cells is “increased”. For the same molecule, in experiment [2], the “size of CFU colonies” value was “increases CFU size”. The “suitability” value in experiment [3] was “suitable for successful in vivo engraftment”. In the experiment with H1 ES cells, the “increase of phenotypic hematopoietic stem cell phenotype (CD45+, CD43+, CD34+, CD38−, CD90+, CD45RA−) over DEAB-containing Differentiation Medium 1 control” value was around 20% and the “levels of the intermittent progenitor phenotype (CD45+, CD43+, CD34+, CD38−)” value was “unaffected”.
As for `CCCC(CCC)C(=O)O` [valproic acid], in experiment [1] (Differentiation Medium 1 supplemented with 1 mM of valproic acid), the “CD34+CD38− cells that were CD90+” value came to 100%. In experiment [1] (butein 10 uM), the “total number of cells” value is reported as “increased”. Besides, the “suitability” value in experiment [3] is given as “suitable for successful in vivo engraftment”.

B1: Cripto: protein expressed in hypoxic endosteal niche cells (protein, UniProt P13385 31-150, looked up)
Protein Cripto: LGHQEFARPSRGYLAFRDDSIWPQEEPAIRPRSSQRVPPMGIQHSKELNRTCCLNGGTCMLGSFCACPPSFYGRNCEHDVRKENCGSVPHDTWLPKKCSLCKCWHGQLRCFPQAFLPGCD
Consider B1, for which the “size of CFU colonies” value in experiment [2] is “increases the size”. The “suitability” value in experiment [3] was “suitable for successful in vivo engraftment”.
